{"source": "ChEMBL document CHEMBL6103619", "about": "“Discovery of a Novel CRBN-Recruiting cGAS PROTAC Degrader for the Treatment of Ulcerative Colitis” (J Med Chem, 2025)", "key": {"[1]": {"tested_on": "Mus musculus", "assay": "(§1) Anti-inflammatory activity in DSS-induced ulcerative colitis C57BL/6 mouse model assessed as reduction in NET generation by measuring reduction in citH3 level in colon at 20 to 50 mg/kg/day, ip preadministered with DSS for 7 days followed by replacement with ultrapure water for 3 days with subsequent compound administration starting from day 4 to 10 and measured on day 11 by Western blot analysis", "assay_type": "functional, organism-based", "settings": "dose 20-50 mg/kg/day, time 8.0 day"}, "[2]": {"tested_on": "THP-1", "assay": "Inhibition of ds-DNA induced cGAS-STING signaling pathway in human THP-1 cells assessed as reduction in STING phosphorylation preincubated with compound for 40 hrs followed by HT-DNA addition and measured after 8 hrs by Western blot analysis", "assay_type": "cell-based", "settings": "dose 0.7-20 µM, time 48.0 hrs"}, "[3]": {"assay": "Downregulation of cGAS protein level in human THP-1 cells at 10 uM incubated for 48 hrs by MS-based LFQ whole proteome analysis relative to control", "assay_type": "functional"}, "[4]": {"tested_on": "Mus musculus", "assay": "as §1, with “normal morphological appearance of spleen” for “reduction in NET generation by measuring reduction in citH3 level in colon”, “H and E staining based” for “Western blot”", "assay_type": "functional, organism-based", "settings": "dose 20-50 mg/kg/day, time 8.0 day"}, "[5]": {"assay": "AUC (0 to 24 hrs) in male C57BL/6 mouse at 1 mg/kg, iv measured after 24 hrs by LC-MS/MS analysis", "assay_type": "ADME, organism-based", "settings": "in vivo"}, "[6]": {"tested_on": "THP-1", "assay": "Cytotoxicity against human THP-1 cells assessed as reduction in cell viability upto 60 uM incubated for 48 hrs by CCK8 assay", "assay_type": "toxicity, cell-based", "settings": "thp-1, 48 h"}, "[7]": {"tested_on": "THP1-Lucia ISG", "assay": "Potency index, ratio of 1-(6,7-dichloro-9-(1-methyl-1H-pyrazol-3-yl)-1,3,4,5-tetrahydro-2H-pyrido[4,3-b]indol-2-yl)-2-hydroxyethan-1-one IC50 to test compound IC50 for inhibition of dsDNA-induced cGAS signaling pathway in human THP1-Lucia ISG cells preincubated with compound for 24 hrs followed by HT-DNA addition and measured after 24 hrs by QUANTI-Luc luciferase reagent based assay", "assay_type": "cell-based", "settings": "time 48.0 hrs"}, "[8]": {"tested_on": "Mus musculus", "assay": "as §1, with “reduction in mucosal NET formation” for “reduction in NET generation”, “mucosal NET formation by measuring” for “in NET generation by measuring”, “11 by immunofluorescence imaging analysis” for “11 by Western blot analysis”", "assay_type": "functional, organism-based", "settings": "dose 20-50 mg/kg/day, time 8.0 day"}, "[9]": {"assay": "(§2) Inhibition of dsDNA-induced cGAS signaling pathway in mouse RAW-Lucia ISG cells preincubated with compound for 24 hrs followed by HT-DNA addition and measured after 24 hrs by QUANTI-Luc luciferase reagent based assay", "assay_type": "cell-based"}, "[10]": {"tested_on": "RAW-Lucia ISG", "assay": "as §2", "assay_type": "cell-based", "settings": "time 48.0 hrs"}, "[11]": {"assay": "Cytotoxicity against human THP1-Lucia ISG cells assessed as reduction in cell viability at >30 uM incubated for 48 hrs by CCK8 assay", "assay_type": "toxicity, cell-based"}, "[12]": {"tested_on": "Mus musculus", "assay": "as §1, with “increase” for “reduction in NET generation by measuring reduction in citH3 level”, “colon length” for “colon”, “11” for “11 by Western blot analysis”", "assay_type": "functional, organism-based", "settings": "dose 20-50 mg/kg/day, time 8.0 day"}, "[13]": {"tested_on": "Mus musculus", "assay": "as §1, with “TNF-alpha mRNA” for “NET generation by measuring reduction in citH3”, “qRT-PCR” for “Western blot”", "assay_type": "functional, organism-based", "settings": "dose 20-50 mg/kg/day, time 8.0 day"}, "[14]": {"biological_target": "T1, Protein cereblon/Cyclic GMP-AMP synthase (Homo sapiens, UniProt Q96SW2+Q8N884)", "T1 sequence (Q8N884 whole entry, looked up)": "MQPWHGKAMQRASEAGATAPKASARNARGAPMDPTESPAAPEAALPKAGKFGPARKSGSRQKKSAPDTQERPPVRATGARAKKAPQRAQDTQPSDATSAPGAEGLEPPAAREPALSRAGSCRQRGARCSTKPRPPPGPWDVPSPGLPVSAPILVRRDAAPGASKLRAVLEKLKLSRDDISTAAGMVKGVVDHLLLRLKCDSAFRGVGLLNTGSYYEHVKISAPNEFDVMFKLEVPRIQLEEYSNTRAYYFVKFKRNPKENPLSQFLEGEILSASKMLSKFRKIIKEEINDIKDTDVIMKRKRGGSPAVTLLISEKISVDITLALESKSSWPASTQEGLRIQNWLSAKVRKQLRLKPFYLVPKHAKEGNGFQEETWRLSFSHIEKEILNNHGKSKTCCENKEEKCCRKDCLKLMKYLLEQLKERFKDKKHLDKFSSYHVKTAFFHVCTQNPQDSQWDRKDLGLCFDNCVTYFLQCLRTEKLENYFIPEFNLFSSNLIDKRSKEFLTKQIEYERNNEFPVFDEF", "T1 sequence (Q96SW2 whole entry, looked up)": "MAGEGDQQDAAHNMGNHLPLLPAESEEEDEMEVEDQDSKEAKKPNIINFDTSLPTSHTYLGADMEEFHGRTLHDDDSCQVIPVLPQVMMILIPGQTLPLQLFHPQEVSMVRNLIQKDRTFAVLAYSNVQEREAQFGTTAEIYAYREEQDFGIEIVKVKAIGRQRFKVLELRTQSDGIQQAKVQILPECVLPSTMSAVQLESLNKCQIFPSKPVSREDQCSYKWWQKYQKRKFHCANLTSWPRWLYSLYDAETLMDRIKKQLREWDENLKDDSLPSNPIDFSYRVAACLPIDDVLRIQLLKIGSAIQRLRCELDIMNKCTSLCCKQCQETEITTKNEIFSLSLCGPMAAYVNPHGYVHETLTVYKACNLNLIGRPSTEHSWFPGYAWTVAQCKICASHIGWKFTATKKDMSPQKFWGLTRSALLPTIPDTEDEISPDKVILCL", "assay": "PROTAC activity at CRBN/cGAS in human THP-1 cells assessed as induction of cGAS degradation by measuring maximal efficacy at 20 uM preincubated with compound for 40 hrs followed by HT-DNA stimulation and measured after 8 hrs by Western blot analysis relative to control", "assay_type": "cell-based", "settings": "time 48.0 hrs"}, "[15]": {"assay": "AUC (0 to 24 hrs) in male C57BL/6 mouse at 20 mg/kg, ip measured after 24 hrs by LC-MS/MS analysis", "assay_type": "ADME, organism-based", "settings": "in vivo"}, "[16]": {"tested_on": "THP-1", "assay": "Downregulation of IFNB mRNA expression level in poly(I:C)-induced human THP-1 cells at 20 uM preincubated with compound for 12 hrs followed by poly(I:C) addition and measured after 8 hrs by RT-qPCR analysis", "assay_type": "functional, cell-based", "settings": "time 20.0 hrs"}, "[17]": {"assay": "Cytotoxicity against mouse RAW-Lucia ISG cells assessed as reduction in cell viability upto 60 uM incubated for 48 hrs by CCK8 assay", "assay_type": "toxicity, cell-based"}, "[18]": {"assay": "Half-life in male C57BL/6 mouse at 20 mg/kg, ip measured after 24 hrs by LC-MS/MS analysis", "assay_type": "ADME, organism-based", "settings": "in vivo"}, "[19]": {"tested_on": "Mus musculus", "assay": "as §1, with “histopathological score of” for “NET generation by measuring reduction in citH3 level in”, “11” for “11 by Western blot analysis”", "assay_type": "functional, organism-based", "settings": "dose 20-50 mg/kg/day, time 8.0 day"}, "[20]": {"assay": "Volume of distribution in male C57BL/6 mouse at 1 mg/kg, iv measured after 24 hrs by LC-MS/MS analysis", "assay_type": "ADME, organism-based", "settings": "in vivo"}, "[21]": {"tested_on": "RAW264.7", "assay": "Inhibition of ds-DNA induced cGAS-STING signaling pathway in mouse RAW264.7 cells assessed as reduction in TBK1 phosphorylation preincubated with compound for 40 hrs followed by HT-DNA addition and measured after 8 hrs by Western blot analysis", "assay_type": "cell-based", "settings": "dose 0.7-20 µM, time 48.0 hrs"}, "[22]": {"tested_on": "Mus musculus", "assay": "as §1, with “[…]” for “reduction”, “[…]” for “NET generation by measuring reduction in citH3 level in colon”, “11” for “11 by Western blot analysis”", "assay_type": "functional, organism-based", "settings": "dose 20-50 mg/kg/day, time 8.0 day"}, "[23]": {"assay": "(§3) Inhibition of dsDNA-induced cGAS signaling pathway in human THP1-Lucia ISG cells preincubated with compound for 24 hrs followed by HT-DNA addition and measured after 24 hrs by QUANTI-Luc luciferase reagent based assay", "assay_type": "cell-based"}, "[24]": {"tested_on": "THP1-Lucia ISG", "assay": "as §3", "assay_type": "cell-based", "settings": "time 48.0 hrs"}, "[25]": {"tested_on": "Mus musculus", "assay": "as §1, with “TNF-alpha secretion” for “NET generation by measuring reduction in citH3 level”, “ELISA” for “Western blot analysis”", "assay_type": "functional, organism-based", "settings": "dose 20-50 mg/kg/day, time 8.0 day"}, "[26]": {"assay": "Cmax in male C57BL/6 mouse at 1 mg/kg, iv measured after 24 hrs by LC-MS/MS analysis", "assay_type": "ADME, organism-based", "settings": "in vivo"}, "[27]": {"tested_on": "Mus musculus", "assay": "as §1, with “decrease” for “reduction”, “disease activity index” for “NET generation by measuring reduction in citH3 level in colon”, “11” for “11 by Western blot analysis”", "assay_type": "functional, organism-based", "settings": "dose 20-50 mg/kg/day, time 8.0 day"}, "[28]": {"tested_on": "THP-1", "assay": "Downregulation of IFNB mRNA expression level in ISD-induced human THP-1 cells at 20 uM preincubated with compound for 12 hrs followed by 45-bp immune stimulatory DNA addition and measured after 8 hrs by RT-qPCR analysis", "assay_type": "functional, cell-based", "settings": "time 20.0 hrs"}, "[29]": {"tested_on": "THP-1", "assay": "Inhibition of ds-DNA induced cGAS-STING signaling pathway in human THP-1 cells assessed as reduction in TBK1 phosphorylation preincubated with compound for 40 hrs followed by HT-DNA addition and measured after 8 hrs by Western blot analysis", "assay_type": "cell-based", "settings": "dose 0.7-20 µM, time 48.0 hrs"}, "[30]": {"assay": "AUC (0 to infinity) in male C57BL/6 mouse at 1 mg/kg, iv measured after 24 hrs by LC-MS/MS analysis", "assay_type": "ADME, organism-based", "settings": "in vivo"}, "[31]": {"biological_target": "T1, Protein cereblon/Cyclic GMP-AMP synthase", "assay": "PROTAC activity at CRBN/cGAS in human THP-1 cells assessed as induction of cGAS degradation at 10 uM by Western blot analysis", "assay_type": "cell-based", "settings": "time 1-24 hrs"}, "[32]": {"biological_target": "Protein cereblon/Cyclic GMP-AMP synthase (Mus musculus) (UniProt Q8C6L5+Q8C7D2)", "sequence (Q8C6L5 whole entry, looked up)": "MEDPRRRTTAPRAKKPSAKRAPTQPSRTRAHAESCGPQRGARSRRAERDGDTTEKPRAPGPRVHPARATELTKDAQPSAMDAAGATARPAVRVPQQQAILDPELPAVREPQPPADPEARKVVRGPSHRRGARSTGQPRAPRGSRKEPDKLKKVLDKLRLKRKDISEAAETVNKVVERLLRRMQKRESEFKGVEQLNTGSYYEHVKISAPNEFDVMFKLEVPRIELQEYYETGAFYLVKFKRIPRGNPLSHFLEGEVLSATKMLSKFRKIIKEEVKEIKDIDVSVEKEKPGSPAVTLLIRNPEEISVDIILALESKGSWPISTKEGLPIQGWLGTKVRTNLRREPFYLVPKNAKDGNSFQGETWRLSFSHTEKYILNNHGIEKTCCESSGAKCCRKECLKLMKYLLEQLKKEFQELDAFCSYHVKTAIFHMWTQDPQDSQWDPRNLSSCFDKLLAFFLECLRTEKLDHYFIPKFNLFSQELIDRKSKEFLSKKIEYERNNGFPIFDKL", "sequence (Q8C7D2 whole entry, looked up)": "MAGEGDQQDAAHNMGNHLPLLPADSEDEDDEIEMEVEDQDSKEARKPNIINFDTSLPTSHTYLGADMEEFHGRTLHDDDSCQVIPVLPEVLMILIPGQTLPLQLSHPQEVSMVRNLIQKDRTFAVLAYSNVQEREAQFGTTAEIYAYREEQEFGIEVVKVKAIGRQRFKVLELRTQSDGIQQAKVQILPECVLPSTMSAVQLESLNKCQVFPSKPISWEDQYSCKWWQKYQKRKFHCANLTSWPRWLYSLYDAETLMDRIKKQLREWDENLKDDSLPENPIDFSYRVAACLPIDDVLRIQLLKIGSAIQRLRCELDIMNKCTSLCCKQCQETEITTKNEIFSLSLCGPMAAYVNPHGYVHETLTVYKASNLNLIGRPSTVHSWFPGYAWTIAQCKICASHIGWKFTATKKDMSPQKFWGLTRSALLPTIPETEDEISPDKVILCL", "assay": "In vivo inhibition of cGAS signaling pathway in DSS-induced ulcerative colitis C57BL/6 mouse model assessed as reduction in cGAS protein level in colon preadministered with DSS for 7 days followed by replacement with ultrapure water for 3 days with subsequent intraperitoneal compound administration starting from day 4 to 10 and measured on day 11 by Western blot analysis", "assay_type": "functional, organism-based", "settings": "dose 20-50 mg/kg/day, route ip, time 8.0 day"}, "[33]": {"assay": "Clearance in male C57BL/6 mouse at 1 mg/kg, iv measured after 24 hrs by LC-MS/MS analysis", "assay_type": "ADME, organism-based", "settings": "in vivo"}}, "note": "Active and inactive are the calls of the source. The rule behind the calls is not given here."}
{"smiles": "Cn1ccc(-c2cc(Cl)c(Cl)c3[nH]c4c(c23)CN(C(=O)CNC(=O)CCCC#Cc2cccc3c2CN(C2CCC(=O)NC2=O)C3=O)CC4)n1", "note": "(stereo not drawn)", "values": [{"measurement": "Activity", "setting": "[1]", "value": "Active"}, {"measurement": "inhibition", "setting": "[2]", "value": "Dose-dependent-effect"}, {"measurement": "Activity", "setting": "[3]", "value": ">80", "unit": "%"}, {"measurement": "Activity", "setting": "[4]", "value": "Active"}, {"measurement": "AUC(0-t) at 24 h", "setting": "[5]", "value": 530, "unit": "ng·h/mL"}, {"measurement": "Activity", "setting": "[6]", "value": "Non-toxic"}, {"measurement": "Ratio IC50", "setting": "[7]", "value": 3}, {"measurement": "Activity", "setting": "[8]", "value": "Active"}, {"measurement": "IC50", "setting": "[9]", "value": 4.8, "unit": "µM"}, {"measurement": "inhibition", "setting": "[10]", "value": "Dose-dependent-effect"}, {"measurement": "Activity", "setting": "[11]", "value": "Toxic"}, {"measurement": "Activity", "setting": "[12]", "value": "Active"}, {"measurement": "Activity", "setting": "[13]", "value": "Active"}, {"measurement": "Emax", "setting": "[14]", "value": 94.4, "unit": "%"}, {"measurement": "AUC(0-t) at 24 h", "setting": "[15]", "value": 2020, "unit": "ng·h/mL"}, {"measurement": "Activity", "setting": "[16]", "value": "inactive"}, {"measurement": "Activity", "setting": "[17]", "value": "Non-toxic"}, {"measurement": "half-life", "setting": "[18]", "value": 13.7, "unit": "h"}, {"measurement": "Activity", "setting": "[19]", "value": "Active"}, {"measurement": "Vd", "setting": "[20]", "value": 8.1, "unit": "L/kg"}, {"measurement": "inhibition", "setting": "[21]", "value": "Dose-dependent-effect"}, {"measurement": "Activity", "setting": "[22]", "value": "Active"}, {"measurement": "IC50", "setting": "[23]", "value": 1.8, "unit": "µM"}, {"measurement": "inhibition", "setting": "[24]", "value": "Dose-dependent-effect"}, {"measurement": "Activity", "setting": "[25]", "value": "Active"}, {"measurement": "Cmax", "setting": "[26]", "value": 1610, "unit": "ng/mL"}, {"measurement": "Activity", "setting": "[27]", "value": "Active"}, {"measurement": "Activity", "setting": "[28]", "value": "Active"}, {"measurement": "inhibition", "setting": "[29]", "value": "Dose-dependent-effect"}, {"measurement": "AUC(0-inf)", "setting": "[30]", "value": 531, "unit": "ng·h/mL"}, {"measurement": "Activity", "setting": "[31]", "value": "Time-dependent-effect"}, {"measurement": "inhibition", "setting": "[32]", "value": "Dose-dependent-effect"}, {"measurement": "clearance", "setting": "[33]", "value": 31.7, "unit": "mL/min/kg"}]}
